Like-named read-outs stand apart in the source and are kept apart here.
How the values were obtained:
[1] = target: T1, full length human farnesoid X receptor (Homo sapiens, UniProt Q96RI1); experiment: farnesoid X receptor/ECREx7 co-transfection assay; format: cell-based; settings: for EC50: CV-1 cells; for Emax: agonist efficacy relative to chenodeoxycholic acid (CDCA) maximum response
T1 construct: CMX-farnesoid X receptor (full length human farnesoid X receptor); expressed in transfected cells; host or cells: CV-1 African Green Monkey Kidney cells
T1 sequence (Q96RI1 1-472 isoform Q96RI1-2): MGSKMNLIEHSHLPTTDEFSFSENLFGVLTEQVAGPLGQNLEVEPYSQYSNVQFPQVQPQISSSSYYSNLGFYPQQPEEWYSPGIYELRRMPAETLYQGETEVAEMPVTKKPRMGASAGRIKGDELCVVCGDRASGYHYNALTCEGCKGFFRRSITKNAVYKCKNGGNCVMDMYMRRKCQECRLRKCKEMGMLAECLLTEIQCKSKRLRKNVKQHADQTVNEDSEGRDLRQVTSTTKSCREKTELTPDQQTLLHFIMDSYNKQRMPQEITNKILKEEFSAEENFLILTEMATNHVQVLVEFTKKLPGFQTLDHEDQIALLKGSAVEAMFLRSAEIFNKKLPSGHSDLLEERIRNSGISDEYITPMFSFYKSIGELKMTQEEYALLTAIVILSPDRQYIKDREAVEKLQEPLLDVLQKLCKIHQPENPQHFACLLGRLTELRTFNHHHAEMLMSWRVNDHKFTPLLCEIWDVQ
T1 sequence (P19793 1-462 partner): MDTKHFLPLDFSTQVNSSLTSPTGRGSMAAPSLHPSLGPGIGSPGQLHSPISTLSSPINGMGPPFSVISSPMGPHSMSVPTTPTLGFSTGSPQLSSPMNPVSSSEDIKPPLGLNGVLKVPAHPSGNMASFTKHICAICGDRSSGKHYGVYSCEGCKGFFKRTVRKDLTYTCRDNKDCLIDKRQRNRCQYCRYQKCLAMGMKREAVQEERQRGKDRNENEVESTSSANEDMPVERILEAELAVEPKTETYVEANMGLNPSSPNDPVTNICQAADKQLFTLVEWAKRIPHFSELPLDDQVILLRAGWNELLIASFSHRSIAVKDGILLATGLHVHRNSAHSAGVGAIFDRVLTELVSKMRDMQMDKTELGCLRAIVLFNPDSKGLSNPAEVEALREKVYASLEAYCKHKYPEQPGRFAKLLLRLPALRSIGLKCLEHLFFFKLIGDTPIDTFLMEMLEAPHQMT
Procedure: (§1) The basic co-transfection protocol for measuring the farnesoid X receptor activity is as follows. CV-1 African Green Monkey Kidney cells were plated 24 hours before transfection to achieve approximately 70-80 percent confluency. Cells were transfected with the following expression vectors, CMX-farnesoid X receptor (full length human farnesoid X receptor), CMX-7RXRα (full length human RXR), Luc12 (ECREx7-Tk-Luciferase) luciferase reporter gene construct. (See WO 00/76523, Venkateswaran et al., (2000) J. Biol. Chem. 275 14700-14707). A CMX-β-Galactosidase expression vector was used as a transfection control. The transfection reagent used was DOTAP (Boehringer Mannheim). Cells were incubated with the DOTAP/DNA mixture for 5 hours after which the cells were harvested and plated onto either 96 well or 384 well plates containing the appropriate concentration of test compound. The assay was allowed to continue for an additional 18-20 hours, after which the cells were lysed, with lysis buffer (1% triton X 100, 10% glycerol, 5 mM Dithiothreitol, 1 mM EGTA, 25 mM Tricine, pH 7.8) and the luciferase activity measured in the presence of Luciferase assay buffer (0.73 mM ATP, 22.3 mM Tricine, 0.11 mM EGTA, 0.55 mM Luciferin, 0.15 mM Coenzyme A, 0.5 mM HEPES, 10 mM Magnesium sulphate) on a standard luminomter plate reader (PE Biosystems, NorthStar Reader), using recommended operating instructions and conditions
(§2) Both the farnesoid X receptor/ECREx7 co-transfection assay (Example 9) and the TR-FRET assay (Example 8) can be used to establish the EC50/IC50 values for potency and percent activity or inhibition for efficacy. Efficacy defines the activity of a compound relative to a high control (chenodeoxycholic acid, CDCA) or a low control (DMSO/vehicle). The dose response curves are generated from an 8 point curve with concentrations differing by ½ LOG units. Each point represents the average of 4 wells of data from a 384 well plate. The curve for the data is generated by using the equation: Y=Bottom+(Top−Bottom)/(1+10^((Log EC50−X)*HillSlope))
The EC50/IC50 is therefore defined as the concentration at which an agonist or antagonist elicits a response that is half way between the Top (maximum) and Bottom (baseline) values. The EC50/IC50 values represented are the averages of at least 3 independent experiments. The determination of the relative efficacy or % control for an agonist is by comparison to the maximum response achieved by chenodeoxycholic acid that is measured individually in each dose response experiment. […]

farnesoid X receptor = target: T2, farnesoid X receptor (Homo sapiens, UniProt Q96RI1); experiment: one or more of the in vitro assays described herein (TR-FRET assay and/or co-transfection assay); settings: for Emax: agonist efficacy relative to CDCA, read-out: efficacy (first value, goes with EC50); for IC50: antagonist mode against CDCA, read-out: IC50 (apparent partial agonist activity); for EC50: read-out: EC50 (apparent partial agonist activity)
T2 sequence (Q96RI1 258-485): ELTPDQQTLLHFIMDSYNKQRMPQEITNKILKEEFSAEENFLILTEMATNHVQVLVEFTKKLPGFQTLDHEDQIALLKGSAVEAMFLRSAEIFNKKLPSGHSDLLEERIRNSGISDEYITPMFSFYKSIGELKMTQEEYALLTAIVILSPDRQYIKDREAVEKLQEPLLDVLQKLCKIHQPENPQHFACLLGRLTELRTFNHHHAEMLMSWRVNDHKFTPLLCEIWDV
Procedure: The TR-FRET assay was performed by incubating 8 nM of GST-farnesoid X receptor-LBD (comprising […] fused in frame to the farnesoid X receptor ligand binding domain, (amino acids 244-471 of the human farnesoid X receptor)), 8 nM of Europium-labeled anti-GST antibody (Wallac/PE Life Sciences Cat#AD0064), 16 nM biotin-SRC-1 peptide [5′-biotin-[…]-CONH2], 20 nM APC-SA [allophycocyanin conjugated streptavidin] (Wallac/PE Life Sciences, Cat# AD0059A) in FRET assay buffer (20 mM KH2PO4/K2HPO4 (pH 7.3), 150 mM NaCl, 2 mM CHAPS, 2 mM EDTA, 1 mM DTT) in the presence of the test compound(s) for 2-4 hours at room temperature in a 384 well assay plate. Data was collected using an LJL Analyst using the standard operating instructions and conditions with readings at emission wavelengths of 615 nm and 665 nm after a delay of 65 μs and an excitation wavelength of 330 nm.
as §1, §2
The EC50/IC50 is therefore defined as the concentration at which an agonist or antagonist elicits a response that is half way between the Top (maximum) and Bottom (baseline) values. The EC50/IC50 values represented are the averages of at least 3 independent experiments. The determination of the relative efficacy or % control for an agonist is by comparison to the maximum response achieved by chenodeoxycholic acid that is measured individually in each dose response experiment.
For the antagonist assay, CDCA is added to each well of a 384 well plate to elicit a response. The % inhibition for each antagonist is therefore a measurement of the inhibition of the activity of CDCA. In this example, 100% inhibition would indicate that the activity of CDCA has been reduced to baseline levels, defined as the activity of the assay in the presence of DMSO only.

[2] = read-out: agonist activity EC50

EC50 [1, 2]	Emax [1]	EC50 ([1]; read-out: agonist activity)	Emax (farnesoid X receptor)	IC50 (farnesoid X receptor)	EC50 (farnesoid X receptor)	Compound
≤ 1000 nM	50 to 100%					CCNc1ccc(C(C)=O)cc1/N=C1\S/C(=C\c2ccccc2)C(=O)N1Cc1ccccc1 [No. 23]
	≥ 100%	< 200 nM				CCNc1ccc(C#N)cc1/N=C1\S/C(=C\N2CCc3ccccc32)C(=O)N1Cc1ccccc1 [No. 5, 3-{[(2Z,5Z)-5-(2,3-dihydro-1H-indol-1-ylmethylidene)-4-oxo-3-(phenylmethyl)-1,3-thiazolidin-2-ylidene]amino}-4-(ethylamino)benzonitrile]
	≥ 100%	< 200 nM				CCNc1ccc(C(C)=O)cc1/N=C1\S/C(=C\N(C)c2cccc(OC)c2)C(=O)N1Cc1ccccc1 [No. 15, (2Z,5Z)-2-{[5-acetyl-2-(ethylamino)phenyl]imino}-5-({methyl[3-(methyloxy)phenyl]amino}methylidene)-3-(phenylmethyl)-1,3-thiazolidin-4-one]
≤ 1000 nM	50 to 100%					CCNc1ccc(C(C)=O)cc1/N=C1\S/C(=C\N(C)c2ccccc2)C(=O)N1Cc1ccccc1 [No. 2, (2Z,5Z)-2-{[5-acetyl-2-(ethylamino)phenyl]imino}-5-{[methyl(phenyl)amino]methylidene)-3-(phenylmethyl)-1,3-thiazolidin-4-one]
≤ 1000 nM	50 to 100%					CC(=O)c1cccc(/N=C2\S/C(=C\N3CCc4ccccc43)C(=O)N2Cc2ccco2)c1 [No. 7, (2Z,5Z)-2-[(3-acetylphenyl)imino]-5-(2,3-dihydro-1H-indol-1-ylmethylidene)-3-(furan-2-ylmethyl)-1,3-thiazolidin-4-one]
≤ 1000 nM	50 to 100%		40 to 50%	300 to 500 nM	~1000 nM	CCNc1ccc(C(C)=O)cc1/N=C1\S/C(=C\N(C)Cc2ccccc2)C(=O)N1Cc1ccccc1 [No. 4, (2Z,5Z)-2-{[5-acetyl-2-(ethylamino)phenyl]imino}-5-{[methyl(phenylmethyl)amino]methylidene}-3-(phenylmethyl)-1,3-thiazolidin-4-one]
	> 100%	< 100 nM				CCNc1ccc(C(C)=O)cc1/N=C1\S/C(=C\N2CCc3ccccc32)C(=O)N1Cc1ccccc1 [No. 6, (2Z,5Z)-2-{[5-acetyl-2-(ethylamino)phenyl]imino}-5-(2,3-dihydro-1H-indol-1-ylmethylidene)-3-(phenylmethyl)-1,3-thiazolidin-4-one]
≤ 1000 nM	50 to 100%					CCNc1ccc(C(C)=O)cc1/N=C1\S/C(=C\c2ccco2)C(=O)N1Cc1ccccc1 [No. 24, (2Z,5Z)-2-{[5-acetyl-2-(ethylamino)phenyl]imino}-5-(furan-2-ylmethylidene)-3-(phenylmethyl)-1,3-thiazolidin-4-one]
≤ 1000 nM	50 to 100%					CCNc1ccc(C(C)=O)cc1/N=C1\S/C(=C\N(C)CCc2ccccc2)C(=O)N1Cc1ccccc1 [No. 19, (2Z,5Z)-2-{[5-acetyl-2-(ethylamino)phenyl]imino}-5-{[methyl(2-phenylethyl)amino]methylidene}-3-(phenylmethyl)-1,3-thiazolidin-4-one]
			40 to 50%	300 to 500 nM	~1000 nM	CCNc1ccc(C#N)cc1/N=C1\S/C(=C\N(C)c2ccc(OC)cc2)C(=O)N1Cc1ccccc1 [No. 12, 4-(ethylamino)-3-{[(2Z,5Z)-5-({methyl[4-(methyloxy)phenyl]amino}methylidene)-4-oxo-3-(phenylmethyl)-1,3-thiazolidin-2-ylidene]amino} benzonitrile]
≤ 1000 nM	50 to 100%					CC(=O)Nc1ccc(/N=C2\S/C(=C\N3CCc4ccccc43)C(=O)N2Cc2ccco2)cc1 [No. 8, N-(4-{[(2Z,5Z)-5-(2,3-dihydro-1H-indol-1-ylmethylidene)-3-(furan-2-ylmethyl)-4-oxo-1,3-thiazolidin-2-ylidene]amino}phenyl)acetamide]

Source: patent US7902237B2, “Heterocyclic compounds as pharmaceutical agents” (Exelixis, Inc., priority 2004, dated 2011)
